Experimental data as given in PMC7217150, “Synthesis, Modification, and Biological Evaluation of a Library of Novel Water‐Soluble Thiopyridone‐Based Organometallic Complexes and Their Unexpected (Biological) Behavior” (Chemistry (Weinheim an Der Bergstrasse, Germany), 2020).

Tests used:
Type in all cases: cell-based, human
A549 = experiment: MTT cytotoxicity assay, monolayer culture; details: exposure time 96 h, means ± SDs
From the text: (§1) A549 (non‐small cell lung carcinoma), SW480 and HCT‐116 (both colon carcinoma) were kindly provided by Brigitte Marian, Institute of Cancer Research, Department of Medicine I, Medical University of Vienna, Austria. The cell line CH1/PA‐1 (ovarian teratocarcinoma) was kindly provided by Lloyd R. Kelland (CRC Centre for Cancer Therapeutics, Institute of Cancer Research, Sutton, UK). All cell culture media (including supplements) and reagents were obtained from Sigma–Aldrich, and all plasticware from StarLab, unless indicated otherwise.

SW480 [1] = experiment: MTT cytotoxicity assay, monolayer culture; details: SW480, MTT assay, exposure time 96 h, means ± SDs
From the text: as §1

CH1/PA‐1 [2] = experiment: MTT cytotoxicity assay, monolayer culture; details: CH1/PA‐1, MTT assay, exposure time 96 h, means ± SDs
From the text: as §1

SW480 [3] = experiment: Cell cycle distribution, flow cytometry with propidium iodide; details: for Cell cycle distribution G1, % / Cell cycle distribution G2/M, % / Cell cycle distribution S, %: 24 h, mean ± SD; for Relative change in cell cycle distribution G1, % / Relative change in cell cycle distribution G2/M, % / Relative change in cell cycle distribution S, %: difference to untreated control
Procedure: (§2) The influence of two ligands, as well as seven complexes on cell cycle distribution was tested in two of the cancer cell lines (SW480, CH1/PA‐1) by means of flow cytometry. The cell cycle distribution (G1, S, G2/M phase in %; Table S37) was investigated upon DNA staining with propidium iodide.
(§3) CH1/PA‐1 and SW480 cells were harvested by trypsinization, 8×10^4 and 1.2×10^5 cells per well were seeded into 12‐well plates, respectively. The cells were allowed to attach and resume proliferation for 24 h after the seeding. […] After continuous exposure for 24 h at 37 °C and under 5 % CO2, the cells were harvested by trypsinization and centrifuged at 300 g for 3 min. The cells were washed with PBS (1 mL) and resuspended in propidium iodine (PI) containing HSF buffer (600 μL; 0.1 % Triton X‐100, 0.1 % sodium citrate, 50 μg mL^−1 PI in PBS). After incubation overnight at 4 °C in the dark, 5×10^3 cells were measured by flow cytometry with a Millipore Guava easyCyte 8HT instrument (Luminex, USA). Data were evaluated by means of FlowJo software (Tree Star) using Watson Pragmatic algorithms.60 The fitting of the curve was chosen to keep the root mean square error between 1.0 and 2.0, alongside with good fitting visual model.

CH1/PA‐1 [4] = experiment: as above; details: for Cell cycle distribution G1, % / Cell cycle distribution G2/M, % / Cell cycle distribution S, %: 24 h, mean ± SD; for Relative change in cell cycle distribution G1, % / Relative change in cell cycle distribution G2/M, % / Relative change in cell cycle distribution S, %: difference to untreated control
Procedure: as §2, §3

## CC1=C2[O][Rh+]([Cl])[S]=C2C=CN1c1cccc2ccccc12.Cc1c(C)c(C)[c-](C)c1C [Compound 5 d, Chlorido[1‐(naphthalene‐1‐yl)‐2‐methyl‐3‐oxo‐κO‐pyridine‐4(1H)‐thionato‐κS](η^5‐1,2,3,4,5‐pentamethylcyclopentadienyl)rhodium(III)]
A549
  IC50: 1300 ± 200 nM
SW480 [1]
  IC50: 1000 ± 100 nM
CH1/PA‐1 [2]
  IC50: 480 ± 60 nM
SW480 [3]; SW480, 2.5 µM
  Cell cycle distribution G1, %: 38 ± 12%
  Cell cycle distribution G2/M, %: 22 ± 8%
  Cell cycle distribution S, %: 40 ± 3%
  Relative change in cell cycle distribution G1, %: -10%
  Relative change in cell cycle distribution G2/M, %: 3%
  Relative change in cell cycle distribution S, %: 7%
SW480 [3]; SW480, 5 µM
  Cell cycle distribution G1, %: 43 ± 10%
  Cell cycle distribution G2/M, %: 20 ± 3%
  Cell cycle distribution S, %: 37 ± 8%
  Relative change in cell cycle distribution G1, %: -5%
  Relative change in cell cycle distribution G2/M, %: 1%
  Relative change in cell cycle distribution S, %: 4%
SW480 [3]; SW480, 10 µM
  Cell cycle distribution G1, %: 48 ± 10%
  Cell cycle distribution G2/M, %: 18 ± 1%
  Cell cycle distribution S, %: 34 ± 9%
  Relative change in cell cycle distribution G1, %: 0%
  Relative change in cell cycle distribution G2/M, %: -1%
  Relative change in cell cycle distribution S, %: 1%
CH1/PA‐1 [4]; CH1/PA-1, 1.25 µM
  Cell cycle distribution G1, %: 40 ± 10%
  Cell cycle distribution G2/M, %: 16 ± 9%
  Cell cycle distribution S, %: 44 ± 3%
  Relative change in cell cycle distribution G1, %: 0%
  Relative change in cell cycle distribution G2/M, %: -8%
  Relative change in cell cycle distribution S, %: 8%
CH1/PA‐1 [4]; CH1/PA-1, 2.5 µM
  Cell cycle distribution G1, %: 38 ± 5%
  Cell cycle distribution G2/M, %: 27 ± 8%
  Cell cycle distribution S, %: 36 ± 7%
  Relative change in cell cycle distribution G1, %: -2%
  Relative change in cell cycle distribution G2/M, %: 3%
  Relative change in cell cycle distribution S, %: 0%
CH1/PA‐1 [4]; CH1/PA-1, 5 µM
  Cell cycle distribution G1, %: 39 ± 6%
  Cell cycle distribution G2/M, %: 22 ± 5%
  Cell cycle distribution S, %: 40 ± 2%
  Relative change in cell cycle distribution G1, %: -1%
  Relative change in cell cycle distribution G2/M, %: -2%
  Relative change in cell cycle distribution S, %: 4%

## Chlorido[1‐phenyl‐2‐methyl‐3‐oxo‐κO‐pyridine‐4(1H)‐thionato‐κS](η^5‐1,2,3,4,5‐pentamethylcyclopentadienyl)rhodium(III) [Compound 5 b]
A549
  IC50: 2000 ± 800 nM
SW480 [1]
  IC50: 670 ± 40 nM
CH1/PA‐1 [2]
  IC50: 660 ± 80 nM
SW480 [3]; SW480, 2.5 µM
  Cell cycle distribution G1, %: 37 ± 17%
  Cell cycle distribution G2/M, %: 23 ± 7%
  Cell cycle distribution S, %: 40 ± 11%
  Relative change in cell cycle distribution G1, %: -11%
  Relative change in cell cycle distribution G2/M, %: 4%
  Relative change in cell cycle distribution S, %: 7%
SW480 [3]; SW480, 5 µM
  Cell cycle distribution G1, %: 26 ± 13%
  Cell cycle distribution G2/M, %: 27 ± 9%
  Cell cycle distribution S, %: 48 ± 7%
  Relative change in cell cycle distribution G1, %: -22%
  Relative change in cell cycle distribution G2/M, %: 8%
  Relative change in cell cycle distribution S, %: 15%
SW480 [3]; SW480, 10 µM
  Cell cycle distribution G1, %: 34 ± 10%
  Cell cycle distribution G2/M, %: 17 ± 6%
  Cell cycle distribution S, %: 49 ± 8%
  Relative change in cell cycle distribution G1, %: -14%
  Relative change in cell cycle distribution G2/M, %: -2%
  Relative change in cell cycle distribution S, %: 16%
SW480 [3]; SW480 cells, 5 μM
  G1 phase decrease: more than 20%
CH1/PA‐1 [4]; CH1/PA-1, 2.5 µM
  Cell cycle distribution G1, %: 22 ± 2%
  Cell cycle distribution S, %: 43 ± 9%
  Relative change in cell cycle distribution G1, %: -18%
  Relative change in cell cycle distribution G2/M, %: 11%
  Relative change in cell cycle distribution S, %: 7%
CH1/PA‐1 [4]; CH1/PA-1, 5 µM
  Cell cycle distribution G1, %: 22 ± 6%
  Cell cycle distribution G2/M, %: 41 ± 4%
  Cell cycle distribution S, %: 37 ± 5%
  Relative change in cell cycle distribution G1, %: -18%
  Relative change in cell cycle distribution G2/M, %: 17%
  Relative change in cell cycle distribution S, %: 1%
CH1/PA‐1 [4]; CH1/PA-1, 10 µM
  Cell cycle distribution G1, %: 19 ± 7%
  Cell cycle distribution G2/M, %: 39 ± 5%
  Cell cycle distribution S, %: 42 ± 1%
  Relative change in cell cycle distribution G1, %: -21%
  Relative change in cell cycle distribution G2/M, %: 15%
  Relative change in cell cycle distribution S, %: 6%
CH1/PA‐1 [4]; CH1/PA‐1 cells, 10 μM
  decrease in G1 phase: more than 20%
